Reference: patent US8895733B2 (Novartis AG, priority 2010, dated 2014)

These compounds were tested against T1, Nav 1.7 (Homo sapiens, UniProt Q15858) (assay: Whole-cell voltage clamp electrophysiology, automated patch clamp (marker c in Table of Examples)). Settings: marker c = Automated patch clamp data; read-out: Nav 1.7 activity.
T1 construct: expressed in transfected cells
Format: cell-based
Method in brief: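 Human NaV1.7 currents were recorded by whole-cell automated patch clamp, on IonWorks Quattro or another automated platform, typically in perforated-patch configuration. The stimulus protocol was designed to probe block mainly of the inactivated state, with a typical sweep stepping from about −65 mV holding to −10 mV, then −100 mV.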

T1 sequence (Q15858 whole entry): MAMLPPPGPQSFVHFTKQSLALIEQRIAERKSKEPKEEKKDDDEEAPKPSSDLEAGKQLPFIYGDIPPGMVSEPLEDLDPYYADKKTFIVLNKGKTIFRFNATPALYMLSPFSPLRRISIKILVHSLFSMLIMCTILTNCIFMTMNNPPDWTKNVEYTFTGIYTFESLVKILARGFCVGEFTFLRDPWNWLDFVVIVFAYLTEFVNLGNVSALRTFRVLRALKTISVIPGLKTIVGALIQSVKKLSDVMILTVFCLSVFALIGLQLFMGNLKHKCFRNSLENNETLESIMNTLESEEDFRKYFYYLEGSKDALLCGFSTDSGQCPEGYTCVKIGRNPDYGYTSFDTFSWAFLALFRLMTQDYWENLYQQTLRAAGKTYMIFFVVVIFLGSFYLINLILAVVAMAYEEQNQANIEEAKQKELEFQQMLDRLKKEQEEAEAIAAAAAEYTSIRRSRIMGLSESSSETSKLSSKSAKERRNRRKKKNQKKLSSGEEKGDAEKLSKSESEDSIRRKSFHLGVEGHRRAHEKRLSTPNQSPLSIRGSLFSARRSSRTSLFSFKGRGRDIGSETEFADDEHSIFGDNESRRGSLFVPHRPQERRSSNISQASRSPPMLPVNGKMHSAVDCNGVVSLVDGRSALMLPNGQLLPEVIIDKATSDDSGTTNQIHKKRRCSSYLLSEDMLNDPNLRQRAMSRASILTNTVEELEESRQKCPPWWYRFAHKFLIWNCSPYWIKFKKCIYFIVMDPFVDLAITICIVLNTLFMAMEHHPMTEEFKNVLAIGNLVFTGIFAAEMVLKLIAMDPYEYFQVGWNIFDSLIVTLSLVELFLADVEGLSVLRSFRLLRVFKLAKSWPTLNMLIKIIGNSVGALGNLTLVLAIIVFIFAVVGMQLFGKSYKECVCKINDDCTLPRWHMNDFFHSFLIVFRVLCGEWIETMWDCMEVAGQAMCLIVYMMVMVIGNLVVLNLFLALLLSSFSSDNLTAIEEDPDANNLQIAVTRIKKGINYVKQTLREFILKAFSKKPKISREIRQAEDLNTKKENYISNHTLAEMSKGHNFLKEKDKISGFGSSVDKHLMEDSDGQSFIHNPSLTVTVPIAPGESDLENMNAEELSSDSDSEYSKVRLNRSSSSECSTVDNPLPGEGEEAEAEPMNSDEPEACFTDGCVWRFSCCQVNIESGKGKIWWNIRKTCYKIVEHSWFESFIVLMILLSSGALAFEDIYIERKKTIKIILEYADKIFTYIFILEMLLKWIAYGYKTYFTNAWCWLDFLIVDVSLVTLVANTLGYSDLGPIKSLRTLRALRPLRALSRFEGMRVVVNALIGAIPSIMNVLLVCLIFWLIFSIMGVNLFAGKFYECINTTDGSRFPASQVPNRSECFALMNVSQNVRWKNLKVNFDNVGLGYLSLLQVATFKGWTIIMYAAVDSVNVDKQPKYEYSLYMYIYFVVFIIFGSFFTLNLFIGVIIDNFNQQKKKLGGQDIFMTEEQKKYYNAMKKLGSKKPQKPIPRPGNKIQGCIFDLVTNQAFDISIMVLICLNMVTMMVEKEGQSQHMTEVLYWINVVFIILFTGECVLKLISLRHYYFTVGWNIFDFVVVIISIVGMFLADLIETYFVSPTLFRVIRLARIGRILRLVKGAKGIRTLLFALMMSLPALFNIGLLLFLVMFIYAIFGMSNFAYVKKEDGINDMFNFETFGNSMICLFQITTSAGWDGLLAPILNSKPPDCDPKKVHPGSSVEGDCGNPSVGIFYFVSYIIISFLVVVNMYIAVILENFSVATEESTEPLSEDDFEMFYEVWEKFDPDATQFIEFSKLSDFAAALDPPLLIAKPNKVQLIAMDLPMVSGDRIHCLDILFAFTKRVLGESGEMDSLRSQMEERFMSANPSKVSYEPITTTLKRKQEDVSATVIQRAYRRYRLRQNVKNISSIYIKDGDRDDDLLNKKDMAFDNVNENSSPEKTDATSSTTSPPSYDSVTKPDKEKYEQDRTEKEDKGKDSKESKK

Row | IC50 [µM] | Compound
1 | 1.85 | COc1ccc(NC(=O)c2nc(-c3nc(N)nc(N(C)c4ccccc4)n3)no2)cn1 [Example 258, 3-{4-Amino-6-[methyl(phenyl)amino]-1,3,5-triazin-2-yl}-N-(6-methoxypyridin-3-yl)-1,2,4-oxadiazole-5-carboxamide]
2 | 0.422 | CN(c1ccccc1)c1nc(N)nc(-c2noc(C(=O)NCc3ccc(OCC(F)(F)F)nc3)n2)n1 [Example 259, 3-{4-amino-6-[methyl(phenyl)amino]-1,3,5-triazin-2-yl}-N-{[6-(2,2,2-trifluoroethoxy)pyridin-3-yl]methyl}-1,2,4-oxadiazole-5-carboxamide]
3 | 1.2 | COc1ccc(CNC(=O)c2nc(-c3nc(N)nc(N(C)c4ccccc4)n3)no2)cn1 [Example 260, 3-{4-amino-6-[methyl(phenyl)amino]-1,3,5-triazin-2-yl}-N-[(6-methoxypyridin-3-yl)methyl]-1,2,4-oxadiazole-5-carboxamide]
4 | 6.01 | CN(c1ccccc1)c1nc(N)nc(-c2noc(C(=O)Nc3ccc(C(F)(F)F)nc3)n2)n1 [Example 263, 3-{4-amino-6-[methyl(phenyl)amino]-1,3,5-triazin-2-yl}-N-[6-(trifluoromethyl)pyridin-3-yl]-1,2,4-oxadiazole-5-carboxamide]
5 | 0.774 | Nc1nc(Nc2cccc(Cl)c2F)nc(-c2noc(-c3ccccn3)n2)n1 [Example 264, 2-N-(3-Chloro-2-fluorophenyl)-6-[5-(pyridin-2-yl)-1,2,4-oxadiazol-3-yl]-1,3,5-triazine-2,4-diamine]
6 | 0.386 | Nc1nc(Nc2cccc(Cl)c2)nc(-c2noc(-c3ccccn3)n2)n1 [Example 265, 2-N-(3-chlorophenyl)-6-[5-(pyridin-2-yl)-1,2,4-oxadiazol-3-yl]-1,3,5-triazine-2,4-diamine]
7 | 4.37 | CN(c1ccccc1)c1nc(N)nc(-c2noc(C3CCCCC3)n2)n1 [Example 266, 6-(5-cyclohexyl-1,2,4-oxadiazol-3-yl)-2-N-methyl-2-N-phenyl-1,3,5-triazine-2,4-diamine]
8 | > 8.26 | CN(c1ccccc1)c1nc(N)nc(-c2noc(-c3ccc(C(F)(F)F)nc3)n2)n1 [Example 267, 2-N-methyl-2-N-phenyl-6-{5-[6-(trifluoromethyl)pyridin-3-yl]-1,2,4-oxadiazol-3-yl}-1,3,5-triazine-2,4-diamine]
9 | 1.36 | Cc1ncccc1-c1nc(-c2nc(N)nc(N(C)c3ccccc3)n2)no1 [Example 268, 2-N-methyl-6-[5-(2-methylpyridin-3-yl)-1,2,4-oxadiazol-3-yl]-2-N-phenyl-1,3,5-triazine-2,4-diamine]
10 | 3.65 | CN(c1ccccc1)c1nc(N)nc(-c2noc(-c3cccc(N4CCOCC4)n3)n2)n1 [Example 270, 2-N-methyl-6-{5-[6-(morpholin-4-yl)pyridin-2-yl]-1,2,4-oxadiazol-3-yl}-2-N-phenyl-1,3,5-triazine-2,4-diamine]
11 | 0.478 | CN(c1cccc(Cl)c1)c1nc(N)nc(-c2noc(-c3ncccc3F)n2)n1 [Example 272, 2-N-(3-chlorophenyl)-6-[5-(3-fluoropyridin-2-yl)-1,2,4-oxadiazol-3-yl]-2-N-methyl-1,3,5-triazine-2,4-diamine]
12 | 0.253 | CN(c1ccccc1)c1nc(N)nc(-c2noc(-c3ncccc3Cl)n2)n1 [Example 273, 6-[5-(3-chloropyridin-2-yl)-1,2,4-oxadiazol-3-yl]-2-N-methyl-2-N-phenyl-1,3,5-triazine-2,4-diamine]
13 | 8.58 | CN(c1ccccc1)c1nc(N)nc(-c2noc(N3CCC(NC(=O)C(F)(F)F)CC3)n2)n1 [Example 274, N-[1-(3-{4-amino-6-[methyl(phenyl)amino]-1,3,5-triazin-2-yl}-1,2,4-oxadiazol-5-yl)piperidin-4-yl]-2,2,2-trifluoroacetamide]
14 | 3.49 | CN(c1ccccc1)c1nc(N)nc(-c2noc(-c3cccnc3Cl)n2)n1 [Example 275, 6-[5-(2-chloropyridin-3-yl)-1,2,4-oxadiazol-3-yl]-2-N-methyl-2-N-phenyl-1,3,5-triazine-2,4-diamine]
15 | 1.68 | CN(c1ccccc1)c1nc(N)nc(-c2noc(C(=O)N3CCCC3)n2)n1 [Example 276, 2-N-methyl-2-N-phenyl-6-{5-[(pyrrolidin-1-yl)carbonyl]-1,2,4-oxadiazol-3-yl}-1,3,5-triazine-2,4-diamine]
16 | 3.26 | CN(c1ccccc1)c1nc(N)nc(-c2noc(C(=O)N3CCCCC3)n2)n1 [Example 277, 2-N-methyl-2-N-phenyl-6-{5-[(piperidin-1-yl)carbonyl]-1,2,4-oxadiazol-3-yl}-1,3,5-triazine-2,4-diamine]
17 | 0.444 | COC(=O)c1ccc(-c2nc(-c3nc(N)nc(N(C)c4ccccc4)n3)no2)cn1 [Example 279, methyl 5-(3-{4-amino-6-[methyl(phenyl)amino]-1,3,5-triazin-2-yl}-1,2,4-oxadiazol-5-yl)pyridine-2-carboxylate]
18 | 0.513 | CN(c1ccccc1)c1nc(N)nc(-c2noc(-c3ccc(C(=O)NCC(F)(F)F)nc3)n2)n1 [Example 280, 5-(3-{4-Amino-6-[methyl(phenyl)amino]-1,3,5-triazin-2-yl}-1,2,4-oxadiazol-5-yl)-N-(2,2,2-trifluoroethyl)pyridine-2-carboxamide]

Row | IC50 [µM] | Compound
19 | 1.81 | CN(c1ccccc1)c1nc(N)nc(-c2noc(-c3ncc(F)cc3F)n2)n1 [Example 281]
20 | 1.38 | Cc1ccc(-c2nc(-c3nc(N)nc(N(C)c4ccccc4)n3)no2)cn1 [Example 283, 2-N-methyl-6-[5-(6-methylpyridin-3-yl)-1,2,4-oxadiazol-3-yl]-2-N-phenyl-1,3,5-triazine-2,4-diamine]
21 | 0.711 | CN(c1ccccc1)c1nc(N)nc(-c2noc(-c3ccc(C(N)=O)nc3)n2)n1 [Example 284, 5-(3-{4-Amino-6-[methyl(phenyl)amino]-1,3,5-triazin-2-yl}-1,2,4-oxadiazol-5-yl)pyridine-2-carboxamide]
22 | 0.308 | COC(=O)c1ccc(-c2nc(-c3nc(N)nc(N(C)c4ccccc4)n3)no2)nc1 [Example 285, methyl 6-(3-{4-amino-6-[methyl(phenyl)amino]-1,3,5-triazin-2-yl}-1,2,4-oxadiazol-5-yl)pyridine-3-carboxylate]
23 | 1.07 | CN(c1ccccc1)c1nc(N)nc(-c2noc(-c3ccc(C(=O)NC4CCC4)nc3)n2)n1 [Example 286, 5-(3-{4-amino-6-[methyl(phenyl)amino]-1,3,5-triazin-2-yl}-1,2,4-oxadiazol-5-yl)-N-cyclobutylpyridine-2-carboxamide]
24 | 1.89 | CN(c1ccccc1)c1nc(N)nc(-c2noc(-c3ccc(C(=O)NC4CC4)nc3)n2)n1 [Example 287, 5-(3-{4-amino-6-[methyl(phenyl)amino]-1,3,5-triazin-2-yl}-1,2,4-oxadiazol-5-yl)-N-cyclopropylpyridine-2-carboxamide]
25 | 1.14 | CN(c1ccccc1)c1nc(N)nc(-c2noc(-c3ccc(C(=O)NCC4CC4)nc3)n2)n1 [Example 288, 5-(3-{4-amino-6-[methyl(phenyl)amino]-1,3,5-triazin-2-yl}-1,2,4-oxadiazol-5-yl)-N-(cyclopropylmethyl)pyridine-2-carboxamide]
26 | 0.39 | CC(C)OC(=O)c1ccc(-c2nc(-c3nc(N)nc(N(C)c4ccccc4)n3)no2)cn1 [Example 289, propan-2-yl 5-(3-{4-amino-6-[methyl(phenyl)amino]-1,3,5-triazin-2-yl}-1,2,4-oxadiazol-5-yl)pyridine-2-carboxylate]
27 | 0.059 | CN(c1ccccc1)c1nc(N)nc(-c2noc(-c3ccc(C(=O)OC4CCCC4)nc3)n2)n1 [Example 290, cyclopentyl 5-(3-{4-amino-6-[methyl(phenyl)amino]-1,3,5-triazin-2-yl}-1,2,4-oxadiazol-5-yl)pyridine-2-carboxylate]
28 | 2.71 | CN(c1ccccc1)c1nc(N)nc(-c2noc(-c3ccc(C(=O)NCC(F)(F)F)cn3)n2)n1 [Example 292, 6-(3-{4-amino-6-[methyl(phenyl)amino]-1,3,5-triazin-2-yl}-1,2,4-oxadiazol-5-yl)-N-(2,2,2-trifluoroethyl)pyridine-3-carboxamide]
29 | 1.35 | CN(c1ccccc1)c1nc(N)nc(-c2noc(-c3ccc(CN4CCCC4)nc3)n2)n1 [Example 293, 2-N-Methyl-2-N-phenyl-6-{5-[6-(pyrrolidin-1-ylmethyl)pyridin-3-yl]-1,2,4-oxadiazol-3-yl}-1,3,5-triazine-2,4-diamine]
30 | 3.98 | CC(c1ccc(-c2nc(-c3nc(N)nc(N(C)c4ccccc4)n3)no2)nc1)N1CCCC1 (centres unmarked) [Example 294, 2-N-Methyl-2-N-phenyl-6-(5-{5-[1-(pyrrolidin-1-yl)ethyl]pyridin-2-yl}-1,2,4-oxadiazol-3-yl)-1,3,5-triazine-2,4-diamine]
31 | 5.19 | CN(c1ccccc1)c1nc(N)nc(-c2noc(-c3ccc(CO)nc3)n2)n1 [Example 295, [5-(3-{4-Amino-6-[methyl(phenyl)amino]-1,3,5-triazin-2-yl}-1,2,4-oxadiazol-5-yl)pyridin-2-yl]methanol]
32 | 0.274 | CC(=O)c1ccc(-c2nc(-c3nc(N)nc(N(C)c4ccccc4)n3)no2)nc1 [Example 296, 1-[6-(3-{4-amino-6-[methyl(phenyl)amino]-1,3,5-triazin-2-yl}-1,2,4-oxadiazol-5-yl)pyridin-3-yl]ethan-1-one]
33 | 0.21 | COC(=O)c1ccc(-c2nc(-c3nc(N)nc(Nc4ccccc4)n3)no2)cn1 [Example 297]
34 | 1.11 | CN(c1ccccc1)c1nc(N)nc(-c2noc(-c3ccc(CN4CCOCC4)nc3)n2)n1 [Example 299, 2-N-methyl-6-{5-[6-(morpholin-4-ylmethyl)pyridin-3-yl]-1,2,4-oxadiazol-3-yl}-2-N-phenyl-1,3,5-triazine-2,4-diamine]
35 | 0.619 | CN(c1ccccc1)c1nc(N)nc(-c2noc(-c3ccc(CNC4CCC4)nc3)n2)n1 [Example 300, 6-(5-{6-[(cyclobutylamino)methyl]pyridin-3-yl}-1,2,4-oxadiazol-3-yl)-2-N-methyl-2-N-phenyl-1,3,5-triazine-2,4-diamine]
